Source: patent US20100266716A1, “Natural Photodynamic Agents and their use” (priority 2007, published 2010)

Legend:
Salmonella choleraesuis = assay: MBEC device biofilm photodynamic killing (Example 1); format: cell-based; parameters: key to Killing of Salmonella cholerasuis biofilm (eradication or growth): “−” = biofilm eradication at the mentioned conditions (concentration, exposure time and Light source); “+” = biofilm growth; conditions: for Killing of Salmonella cholerasuis biofilm (eradication or growth): 16 Hours exposure
Description: (§1) Test microorganisms included Salmonella choleraesuis, Staphylococcus aureus, foodborne pathogens of humans. Test Compounds included Methylene blue, Hemoglobin (blood product), Hemin (blood product), Protoporphyrin (blood product), Annatto Extract (15% Norbixin), beet juice, Canthaxanthin (10%), Beta-carotene (1%), Purple carmine 50%, Carmine lake 60%, Black Carrot extract, Tomato lycopene (5%), sodium copper chlorophyllin, grape skin extract, paprika oleoresin, riboflavin, saffron, titanium dioxide, FD&C blue No1., turmeric oleoresin, FD&C blue No. 2, FD&C Green No. 3, FD&C Red No. 2 (Amaranth), FD&C Red No. 40, FD&C Yellow No. 5, and FD&C Yellow No. 6. Compounds were prepared as 1%, 0.1%, 0.01%, by weight, dissolved in water.
(§2) The light source was a full spectrum fluorescent light or LED light and the contact time was 1 and 16 hours. The study temperature was 37° C.
(§3) Approximately 10^6 organisms in 150 uL Cation Adjusted Mueller Hinton Broth (CAMHB) were placed in each of the wells of a 96 peg MBEC device. The lid of the 96 peg MBEC device was placed on the bottom plate containing organism. The device was placed on a shaker, set to 110 rpm, and incubated at 37° C. for 24 hours to produce biofilms.
(§4) The challenge plates were set up using a sterile 96-well microtitre plate using aseptic techniques in the following manner (one organism per plate, per light exposure time, per light source). Test solutions (200 uL) were placed into each well. The lid was transferred to the challenge plate and exposed to the various light sources for the prescribed exposure times (16 hours). Following the treatment, the pegs were transferred to the recovery media (“recovery plate”) then wrapped in tin foil and incubated at 37° C. for 18 to 24 hours. The recovery plate(s) was wrapped in tin foil, incubated at 37° C. for 24 hours and read visually and by a plate reader, set to an optical density measurement of 630 nm, to determine Minimum Biofilm Eradication Concentration (MBEC) by looking at growth or no growth.

Staphylococcus aureus = assay: as above; format: cell-based; parameters: key to Killing of Staph aureus biofilm (eradication or growth): “−” = biofilm eradication at the mentioned conditions (concentration, exposure time and Light source); “+” = biofilm growth; conditions: 16 Hours exposure
Description: as §1, §2, §3, §4

Row | Structure (SMILES) | Killing of Salmonella cholerasuis biofilm (eradication or growth) (Salmonella choleraesuis; Fluorescent Light, 0.01%) | Killing of Salmonella cholerasuis biofilm (eradication or growth) (Salmonella choleraesuis; Fluorescent Light, 0.1%) | Killing of Salmonella cholerasuis biofilm (eradication or growth) (Salmonella choleraesuis; Fluorescent Light, 1%) | Killing of Salmonella cholerasuis biofilm (eradication or growth) (Salmonella choleraesuis; LED Light, 0.01%) | Killing of Salmonella cholerasuis biofilm (eradication or growth) (Salmonella choleraesuis; LED Light, 0.1%) | Killing of Salmonella cholerasuis biofilm (eradication or growth) (Salmonella choleraesuis; LED Light, 1%) | effective as photodynamic agent in killing biofilm organisms (Salmonella choleraesuis; Salmonella choleraesuis and Staphylococcus aureus biofilm, summary of Table 1) | Killing of Staph aureus biofilm (eradication or growth) (Staphylococcus aureus; Fluorescent Light, 0.01%) | Killing of Staph aureus biofilm (eradication or growth) (Staphylococcus aureus; Fluorescent Light, 0.1%) | Killing of Staph aureus biofilm (eradication or growth) (Staphylococcus aureus; Fluorescent Light, 1%) | Killing of Staph aureus biofilm (eradication or growth) (Staphylococcus aureus; LED Light, 0.01%) | Killing of Staph aureus biofilm (eradication or growth) (Staphylococcus aureus; LED Light, 0.1%) | Killing of Staph aureus biofilm (eradication or growth) (Staphylococcus aureus; LED Light, 1%)
1 | CCN(Cc1cccc(S(=O)(=O)[O-])c1)c1ccc(C(=C2C=CC(=[N+](CC)Cc3cccc(S(=O)(=O)[O-])c3)C=C2)c2ccccc2S(=O)(=O)[O-])cc1.[Na+].[Na+] [Blue No. 1, FD&C blue No1.] | − | − | − | + | + | + | Effective | + | + | + | + | + | +
2 | O=C1/C(=C2\Nc3ccc(S(=O)(=O)[O-])cc3C2=O)Nc2ccc(S(=O)(=O)[O-])cc21.[Na+].[Na+] [Blue No. 2, FD&C blue No. 2] | + | + | + | + | + | + |  | + | + | + | + | + | +
3 | CC1=C(/C=C/C(C)=C/C=C/C(C)=C/C=C/C=C(C)/C=C/C=C(C)/C=C/C2=C(C)C(=O)CCC2(C)C)C(C)(C)CCC1=O [Canthaxanthin] | + | + | + | + | + | + |  | + | + | + | + | + | +
4 | CCN(Cc1cccc(S(=O)(=O)[O-])c1)c1ccc(C(=C2C=CC(=[N+](CC)Cc3cccc(S(=O)(=O)[O-])c3)C=C2)c2ccc(O)cc2S(=O)(=O)[O-])cc1.[Na+].[Na+] [Green No. 3, FD&C Green No. 3] | + | + | + | + | + | + |  | + | + | + | + | + | +
5 | O=S(=O)([O-])c1ccc2c(N=Nc3ccc(S(=O)(=O)[O-])c4ccccc34)c(O)c(S(=O)(=O)[O-])cc2c1.[Na+].[Na+].[Na+] [Red No. 2, FD&C Red No. 2 (Amaranth)] | + | + | + | + | + | + |  | + | + | + | + | + | +
6 | COc1cc(S(=O)(=O)[O-])c(C)cc1N=Nc1c(O)ccc2cc(S(=O)(=O)[O-])ccc12.[Na+].[Na+] [Red No. 40, FD&C Red No. 40] | + | + | + | + | + | + |  | + | + | + | + | + | +
7 | Cc1cc2nc3c(=O)[nH]c(=O)nc-3n(C[C@H](O)[C@H](O)[C@H](O)CO)c2cc1C [Riboflavin, riboflavin] | + | + | + | + | + | + |  | + | + | + | + | + | +
8 | O=C([O-])C1=NN(c2ccc(S(=O)(=O)[O-])cc2)C(=O)C1N=Nc1ccc(S(=O)(=O)[O-])cc1.[Na+].[Na+].[Na+] (stereo not shown) [Yellow No. 5, FD&C Yellow No. 5] | + | + | + | + | + | + |  | + | + | + | + | + | +
9 | O=S(=O)([O-])c1ccc(N=Nc2c(O)ccc3cc(S(=O)(=O)[O-])ccc23)cc1.[Na+].[Na+] [Yellow No. 6, FD&C Yellow No. 6] | + | + | + | + | + | + |  | + | + | + | + | + | +
